We go through 32 compounds from patent publication US20220388964A1 (HiberCell, Inc., priority 2019, published 2022).

GCN2, sequence (Q9P2K8 whole entry): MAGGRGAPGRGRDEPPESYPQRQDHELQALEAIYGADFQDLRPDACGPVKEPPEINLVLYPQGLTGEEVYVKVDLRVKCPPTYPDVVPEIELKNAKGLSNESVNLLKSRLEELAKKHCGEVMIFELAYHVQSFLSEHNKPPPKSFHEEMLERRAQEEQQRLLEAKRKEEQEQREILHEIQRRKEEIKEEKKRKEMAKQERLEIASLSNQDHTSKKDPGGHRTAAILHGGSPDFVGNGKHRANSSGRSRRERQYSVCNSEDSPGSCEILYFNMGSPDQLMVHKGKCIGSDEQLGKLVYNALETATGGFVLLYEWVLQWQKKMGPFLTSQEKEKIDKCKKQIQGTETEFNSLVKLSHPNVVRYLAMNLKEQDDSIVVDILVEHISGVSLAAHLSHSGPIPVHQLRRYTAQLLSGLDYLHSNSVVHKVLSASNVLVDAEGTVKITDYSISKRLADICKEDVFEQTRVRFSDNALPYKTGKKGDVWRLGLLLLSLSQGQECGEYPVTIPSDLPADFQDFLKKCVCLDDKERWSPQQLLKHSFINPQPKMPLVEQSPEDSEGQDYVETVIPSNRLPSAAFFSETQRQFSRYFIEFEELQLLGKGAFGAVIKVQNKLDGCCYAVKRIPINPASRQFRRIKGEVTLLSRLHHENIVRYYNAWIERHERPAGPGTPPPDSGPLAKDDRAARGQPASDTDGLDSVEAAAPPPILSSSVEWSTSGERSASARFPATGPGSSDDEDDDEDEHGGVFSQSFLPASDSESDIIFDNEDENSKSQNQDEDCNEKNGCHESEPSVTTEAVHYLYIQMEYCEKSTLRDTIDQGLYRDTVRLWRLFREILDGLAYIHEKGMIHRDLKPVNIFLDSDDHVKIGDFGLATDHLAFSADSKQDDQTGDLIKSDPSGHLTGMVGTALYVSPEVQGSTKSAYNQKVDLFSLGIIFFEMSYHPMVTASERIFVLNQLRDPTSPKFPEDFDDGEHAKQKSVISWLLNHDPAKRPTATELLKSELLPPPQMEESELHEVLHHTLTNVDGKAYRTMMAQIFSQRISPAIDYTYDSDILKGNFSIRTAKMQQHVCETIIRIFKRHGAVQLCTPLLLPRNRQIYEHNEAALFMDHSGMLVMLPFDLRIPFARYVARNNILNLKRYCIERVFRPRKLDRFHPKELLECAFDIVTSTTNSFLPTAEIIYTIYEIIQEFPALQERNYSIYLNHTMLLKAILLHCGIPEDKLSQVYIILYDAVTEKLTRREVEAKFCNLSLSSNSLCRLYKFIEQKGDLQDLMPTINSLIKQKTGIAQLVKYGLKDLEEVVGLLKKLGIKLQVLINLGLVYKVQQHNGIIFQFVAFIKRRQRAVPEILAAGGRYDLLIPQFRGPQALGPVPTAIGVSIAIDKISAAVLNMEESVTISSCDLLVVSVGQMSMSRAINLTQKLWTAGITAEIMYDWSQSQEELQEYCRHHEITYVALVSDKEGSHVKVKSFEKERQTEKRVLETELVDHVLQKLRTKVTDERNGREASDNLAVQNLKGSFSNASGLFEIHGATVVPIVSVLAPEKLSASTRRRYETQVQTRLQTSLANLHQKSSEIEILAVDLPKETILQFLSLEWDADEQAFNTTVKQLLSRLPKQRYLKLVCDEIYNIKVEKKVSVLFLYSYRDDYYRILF

The first assay has as its target GCN2 (Homo sapiens, UniProt Q9P2K8). In words: TR-FRET biochemical assay for inhibition of GCN2 (Example 106, for Example 1-4BB). The note with it: Table 8. For orientation: Time-resolved FRET reads energy transfer from a long-lived donor to a nearby acceptor.
With `COc1ncccc1S(=O)(=O)Nc1ccc(F)c(-c2ccc3c(-c4ncc[nH]4)n[nH]c3c2F)c1F` [Example 2U, N-(2,4-difluoro-3-(7-fluoro-3-(1H-imidazol-2-yl)-1H-indazol-6-yl)phenyl)-2-methoxy-pyridine-3-sulfonamide], the IC50 (in general, the concentration at which inhibition is half-maximal) was under 500 nM.

`Cc1nn(C)cc1S(=O)(=O)Nc1ccc(F)c(-c2ccc3c(-c4ncc[nH]4)n[nH]c3c2F)c1F` [Example 2I, N-(2,4-difluoro-3-(7-fluoro-3-(1H-imidazol-2-yl)-1H-indazol-6-yl)phenyl)-1,3-dimethyl-1H-pyrazole-4-sulfonamide]: the IC50 is 500 to 2500 nM.

The compound `Cc1ccc(S(=O)(=O)Nc2ccc(F)c(-c3ccc4c(-c5ncc[nH]5)n[nH]c4c3F)c2F)cc1` [Example 1, N-(2,4-difluoro-3-(7-fluoro-3-(1H-imidazol-2-yl)-1H-indazol-6-yl)phenyl)-4-methylbenzenesulfonamide] showed an IC50 of 500 to 2500 nM.

Compound `COc1ncc(Cl)cc1S(=O)(=O)Nc1cccc(-c2ccc3c(-c4ncc[nH]4)n[nH]c3c2F)c1Cl` [Example 2O, 5-chloro-N-(2-chloro-3-(7-fluoro-3-(1H-imidazol-2-yl)-1H-indazol-6-yl)phenyl)-2-methoxy-pyridine-3-sulfonamide] gave an IC50 of under 500 nM.

Compound `O=S(=O)(Nc1ccc(F)c(-c2ccc3c(-c4ncc[nH]4)n[nH]c3c2F)c1F)c1cc(F)ccc1F` [Example 2BH, N-(2,4-difluoro-3-(7-fluoro-3-(1H-imidazol-2-yl)-1H-indazol-6-yl)phenyl)-2,5-difluorobenzenesulfonamide] displayed an IC50 of under 500 nM.

In turn, `Cc1noc(C)c1S(=O)(=O)Nc1ccc(F)c(-c2ccc3c(-c4ncc[nH]4)n[nH]c3c2F)c1F` [Example 2AZ, N-(2,4-difluoro-3-(7-fluoro-3-(1H-imidazol-2-yl)-1H-indazol-6-yl)phenyl)-3,5-dimethylisoxazole-4-sulfonamide] had an IC50 of under 500 nM.

The assay is the same for the next values; noted with them: Table 9.
As for `COc1ncc(F)cc1S(=O)(=O)Nc1ccc(F)c(-c2ccc3c(C(=O)N[C@H]4CCN(C)C4)n[nH]c3c2F)c1F` [Example 3AC, 6-(3-((5-fluoro-2-methoxy-pyridine)-3-sulfonamido)-2,6-difluorophenyl)-7-fluoro-N-((S)-1-methylpyrrolidin-3-yl)-1H-indazole-3-carboxamide], the IC50 is 500 to 2500 nM.

`COc1ncc(Cl)cc1S(=O)(=O)Nc1ccc(F)c(-c2ccc3c(C(=O)Nc4cnn(C(F)F)c4)n[nH]c3c2F)c1F` [Example 3CR, 6-(3-((5-chloro-2-methoxy-pyridine)-3-sulfonamido)-2,6-difluorophenyl)-N-(1-(difluoromethyl)-1H pyrazol-4-yl)-7-fluoro-1H-indazole-3-carboxamide]: the IC50 was in the range of 500 to 2500 nM.

Turning to `COc1ncc(Cl)cc1S(=O)(=O)Nc1ccc(F)c(-c2ccc3c(C(=O)Nc4cnn(CCO)c4)n[nH]c3c2F)c1F` [Example 3CT, 6-(3-((5-chloro-2-methoxy-pyridine)-3-sulfonamido)-2,6-difluorophenyl)-7-fluoro-N-(1-(2-hydroxyethyl)-1H-pyrazol-4-yl)-1H-indazole-3-carboxamide], the IC50 was under 500 nM.

The compound `Cc1ncc(F)cc1S(=O)(=O)Nc1cc(F)cc(-c2ccc3c(C(N)=O)n[nH]c3c2F)c1F` [Example 3CG, 6-(2,5-difluoro-3-((5-fluoro-2-methylpyridine)-3-sulfon-amido)phenyl)-7-fluoro-1H-indazole-3-carboxamide] gave an IC50 of under 500 nM.

As to `COc1ncc(F)cc1S(=O)(=O)Nc1nccc(-c2ccc3c(-c4ncc[nH]4)n[nH]c3c2F)c1C#N` [Example 31], the IC50 is 500 to 2500 nM.

The compound `NC(=O)c1n[nH]c2c(F)c(-c3c(F)ccc(NS(=O)(=O)c4cc(F)cc5c4CCC5O)c3F)ccc12` (centres unmarked) [Example 4R] came in with a half-maximal inhibitory concentration (IC50) of under 500 nM.

As to `COc1ncc(F)cc1S(=O)(=O)Nc1cccc(-c2ccc3c(-c4ncc[nH]4)n[nH]c3c2C)c1F` [Example 22, N-(3-(3-(1H-Imidazol-2-yl)-7-methyl-1H-indazol-6-yl)-2-fluorophenyl)-5-fluoro-2-methoxypyridine-3-sulfonamide], the IC50 is 500 to 2500 nM.

In the case of `O=S(=O)(Nc1ccc(F)c(-c2ccc3c(-c4ccccc4)n[nH]c3c2)c1F)c1cc(F)ccc1F` [Example 10, N-(2,4-Difluoro-3-(3-phenyl-1H-indazol-6-yl)phenyl)-2,5-difluorobenzenesulfonamide], the IC50 was 2500 to 10000 nM.

`COc1ncc(Cl)cc1S(=O)(=O)Nc1nccc(-c2ccc3c(-c4ncc[nH]4)n[nH]c3c2F)c1F` [Example 11, 5-Chloro-N-(3-fluoro-4-(7-fluoro-3-(1H-imidazol-2-yl)-1H-indazol-6-yl)pyridin-2-yl)-2-methoxypyridine-3-sulfonamide] displayed a 50% inhibitory concentration (IC50) of over 10000 nM.

In turn, `COc1ncc(Cl)cc1S(=O)(=O)Nc1ccc(F)c(-c2ccc3c(C(=O)N[C@H]4CCN(C)C4)n[nH]c3c2F)c1F` [Example 3AF, 6-(3-((5-chloro-2-methoxy-pyridine)-3-sulfonamido)-2,6-difluorophenyl)-7-fluoro-N-((S)-1-methylpyrrolidin-3-yl)-1H-indazole-3-carboxamide] gave a 50% inhibitory concentration (IC50) of under 500 nM.

`O=S(=O)(Nc1ccc(F)c(-c2ccc3c(-c4ncc[nH]4)n[nH]c3c2F)c1F)c1cccn2ccnc12` [Example 3O, N-(2,4-difIuoro-3-(7-fluoro-3-(1H-imidazol-2-yl)-1H-indazol-6-yl)phenyl)-imidazo[1,2-a]pyridine-8-sulfonamide] gave an IC50 of under 500 nM.

For the compound `COc1ncccc1S(=O)(=O)Nc1ccc(F)c(-c2ccc3c(C(=O)NCCCO)n[nH]c3c2F)c1F` [Example 3BI, 6-(2,6-difluoro-3-((2-methoxypyridine)-3-sulfonamido)phenyl)-7-fluoro-N-(3-hydroxypropyl)-1H-indazole-3-carboxamide], the IC50 was in the range of 500 to 2500 nM.

The compound `COc1ncc(F)cc1S(=O)(=O)Nc1cc(F)cc(-c2ccc3c(C(=O)NCCCO)n[nH]c3c2F)c1F` [Example 3AP, 6-(2,5-difluoro-3-((5-fluoro-2-methoxypyridine)-3-sulfon-amido)phenyl)-7-fluoro-N-(3-hydroxypropyl)-1H-indazole-3-carboxamide] registered an IC50 of under 500 nM.

Regarding `Cc1c(CO)cc(F)cc1S(=O)(=O)Nc1ccc(F)c(-c2ccc3c(C(=O)Nc4cn[nH]c4)n[nH]c3c2F)c1F` [Example 4K], the IC50 was under 500 nM.

Regarding `Cc1ccc(F)cc1S(=O)(=O)Nc1ccc(F)c(-c2ncc3c(-c4ncc[nH]4)n[nH]c3c2F)c1F` [Example 38, N-[2,4-difluoro-3-[7-fluoro-3-(1H-imidazol-2-yl)-1H-pyrazolo[4,3-c]pyridin-6-yl]phenyl]-5-fluoro-2-methyl-benzenesulfonamide], the IC50 is under 500 nM.

Consider `COc1ncc(F)cc1S(=O)(=O)Nc1cccc(-c2ccc3c(-c4nc(CO)c[nH]4)n[nH]c3c2F)c1F` [Example 13, 5-Fluoro-N-(2-fluoro-3-(7-fluoro-3-(4-(hydroxymethyl)-1H-imidazol-2-yl)-1H-indazol-6-yl)phenyl)-2-methoxypyridine-3-sulfonamide], for which the IC50 was under 500 nM.

For `COc1nc(C)c(Cl)cc1S(=O)(=O)Nc1ccc(F)c(-c2ccc3c(C(=O)NCCCO)n[nH]c3c2F)c1F` [Example 3DO, 6-(3-((5-chloro-2-methoxy-6-methylpyridine)-3-sulfon-amido)-2,6-difluorophenyl)-7-fluoro-N-(3-hydroxypropyl)-1H-indazole-3-carboxamide], the IC50 is under 500 nM.

In the case of `O=C1CCc2c1cc(F)cc2S(=O)(=O)Nc1ccc(F)c(-c2ccc3c(C(=O)Nc4cn[nH]c4)n[nH]c3c2F)c1F` [Example 4AD], the IC50 was under 500 nM.

On to `Cc1ccc(F)cc1S(=O)(=O)Nc1ncc(F)c(-c2ccc3c(-c4ncc[nH]4)n[nH]c3c2F)c1F` [Example 30, N-(3,5-Difluoro-4-(7-fluoro-3-(1H-imidazol-2-yl)-1H-indazol-6-yl)pyridin-2-yl)-5-fluoro-2-methylbenzenesulfonamide], for which the half-maximal inhibitory concentration (IC50) is under 500 nM.

Turning to `COc1ncc(F)cc1S(=O)(=O)Nc1ccc(F)c(-c2ccc3c(C(=O)NCC[C@@H](O)CO)n[nH]c3c2F)c1F` [Example 3BF, 6-(2,6-difluoro-3-((5-fluoro-2-methoxypyridine)-3-sulfonamido)phenyl)-N-((R)-3,4-dihydroxybutyl)-7-fluoro-1H-indazole-3-carboxamide], the IC50 is under 500 nM.

As to `COc1ncccc1S(=O)(=O)Nc1ccnc(-c2ccc3c(-c4ncc[nH]4)n[nH]c3c2F)c1C#N` [Example 3G, N-(3-cyano-2-(7-fluoro-3-(1H-imidazol-2-yl)-1H-indazol-6-yl)pyridin-4-yl)-2-methoxypyridine-3-sulfonamide], the IC50 was over 10000 nM.

`Cc1c(CO)cc(F)cc1S(=O)(=O)Nc1ccc(F)c(-c2ccc3c(C(N)=O)n[nH]c3c2F)c1F` [Example 4G]: the IC50 is under 500 nM.

Turning to `COc1ncc(Cl)cc1S(=O)(=O)Nc1cc(F)cc(-c2ccc3c(C(N)=O)n[nH]c3c2F)c1F` [Example 3CF, 6-(3-((5-chloro-2-methoxy-pyridine)-3-sulfonamido)-2,5-difluorophenyl)-7-fluoro-1H-indazole-3-carboxamide], the IC50 is under 500 nM.

As for `COc1ncc(F)cc1S(=O)(=O)Nc1cc(F)cc(-c2ccc3c(C(=O)N[C@@H]4CCN(C)C4)n[nH]c3c2F)c1F` [Example 3BS, 6-(3-((5-fluoro-2-methoxy-pyridine)-3-sulfonamido)-2,5-difluorophenyl)-7-fluoro-N-((R)-1-methylpyrrolidin-3-yl)-1H-indazole-3-carboxamide], the IC50 was under 500 nM.

As to `COc1ncc(F)cc1S(=O)(=O)Nc1ncc(F)c(-c2ccc3c(C(N)=O)n[nH]c3c2F)c1F` [Example 3M, 6-(3,5-difluoro-2-((5-fluoro-2-methoxypyridine)-3-sulfonamido)pyridin-4-yl)-7-fluoro-1H-indazole-3-carboxamide], the half-inhibitory concentration (IC50) is over 10000 nM.

In turn, `COc1ncc(CO)cc1S(=O)(=O)Nc1ccc(F)c(-c2ccc3c(C(N)=O)n[nH]c3c2F)c1F` [Example 3DE, 6-(2,6-difluoro-3-((5-(hydroxylmethyl)-2-methoxy-pyridine)-3-sulfonamido)-phenyl)-7-fluoro-1H-indazole-3-carboxamide] returned an IC50 of 2500 to 10000 nM.
